According to patent US10648917B2, “Luminescent compositions and applications thereof” (THE PENN STATE RESEARCH FOUNDATION, priority 2015, dated 2020):

Tests used:
[1] = Fluorescence spectra, absorbance and quantum yield (spectrofluorometer, integration sphere); type: physicochemical; details: for Shifting (emission shifting with excitation wavelength): CFD dyes; for Φ (quantum yield) / λem (maximum emission wavelength) / λex (maximum excitation wavelength) / ϵ (extinction coefficiency): Table III; for Max. Em. Wavelength / Max. Ex. Wavelength / Quantum Yield: representative CFDs, Table I
Procedure: Fluorescence spectra were recorded by a Horiba FluoroMax-4 spectrofluorometer. All polymer and small molecule samples were measured at a concentration of 2% w/w in 1,4-dioxane or DI water and a slit size of 1 nm by 1 nm unless otherwise specified. Quantum yields were also determined on the same spectrofluorometer by using a Quantum-φ integration sphere at the same concentration and slit size with the blank solvent as the reference. ^1H-NMR, ^13C-NMR were performed on a JNM ECS 300 spectrometer using DMSO-d6 or D2O as solvents. Attenuated total reflection Fourier transform infrared (ATR-FTIR) spectra were collected with a Bruker V70 spectrometer using BPLP films. A Shimadzu HPLC-MS system with a Phenomenex Kinetex 2.6u XB-C18 100 mm×2.9 mm column, a SPD M20A PDA detector and a RF-20AXS fluorescence detector (Ex. 360 nm and Em. 430 nm) was used to characterize the structures of fluorophores as well. The mobile phase was a gradient of DI water and acetonitrile with 0-6 min 2% acetonitrile, 6-12 min 2%-30% acetonitrile, and 12-15 min 2% acetonitrile. The flow rate was 0.15 ml/min. Electrospray ionization mass spectroscopy (ESI-MS) was performed with a positive voltage of 4.5 kV and negative mode voltage −4.0 kV and a CDL temperature of 200° C. The analysis of the degradation products of BPLPs were conducted by immersing BPLPs in 1M K2CO3 solution at 37° C. for 24 hours. After degradation, the solutions were neutralized by 1N HCl solution to pH 7 and characterized by HPLC-MS as described above.
(§1) Fluorescence spectra were recorded by a Horiba FluoroMax-4 spectrofluorometer. All samples were measured at a concentration corresponding to an optical density of 0.1 in water and a slit size of 1 nm by 1 nm unless specified. Quantum yields were also determined on same spectrofluorometer by using a Quantum-φ integration sphere at samples' maximum excitation wavelength and at an increment of 0.3 nm. Photostability studies were done by continuously exciting samples at their maximum excitation wavelength and monitoring at the maximum emission wavelength.
(§2) Fluorescence spectra were recorded on a Horiba FluoroMax-4 spectrofluorometer (Horiba Scientific, Edison N.J.). All polymer and samples were characterized at a concentration of 2 wt % in 1,4-dioxane and a slit size of 1 nm by 1 nm unless otherwise specified. The fluorescence properties of small molecule dyes were also measure in 2 wt % DI water solutions at same conditions as polymer solutions. BPLPs were also degraded in 1M K2CO3 solution at 37° C. for 24 hours and then neutralized with 1N HCl solution to pH7. The resulting degradation solutions were subject to further PL characterizations. Quantum yields were also determined on the same spectrofluorometer by using a Quantum-φ integration sphere (Horiba Scientific, Edison N.J.) at the same concentration and slit size with the blank solvent as the reference. Photostability of small molecules and polymers were determined by monitoring the emission intensity decay at their max. Excitation and emission wavelengths over 3 hours of continuous lumination in the spectrofluorometer.
(§3) Absorbance Spectra were recorded on Tecan Infinite M200 Pro UV-vis spectroscopy, and fluorescence spectra were recorded on Horiba FluoroMax-4 fluorospectroscopy at concentrations below 0.1 O.D. unless otherwise indicated. Quantum Yields were measured on the Quantum φ Integrating Sphere accessory to the FluoroMax-4, while lifetime measurements were determined through the Time-Correlation Single Photon Counting (TCSPC) accessory to the FluroMax-4. TCSPC was utilized in conjunction with NanoLED pulsed diode light source with peak excitation wavelength at 352 nm and at 10,000 counts peak preset. Emission was collected at the fluorescence λmax, unless otherwise indicated. For all pH-dependence experiments, sample pH was adjusted with sulfuric acid or sodium hydroxide. For all chloride-dependent quenching experiments, magnesium chloride hexahydrate (Sigma Aldrich) was used.

[2] = Halide fluorescence quenching (Stern-Volmer); type: physicochemical; details: compared with CA-Cysteine
Procedure: as §3
When a fluorophore of [F] absorbs light energy, excitation raises a sub-population of [F] to the excited state, [F*], which then rapidly lose energy along radiative relaxation (kr) or non-radiative relaxation (knr) according to equation 7. If a quencher forms a complex with the excited fluorophore, an extra non-radiative component, kq, is added to equation 7 to account for the additional relaxation pathway that is a function of quencher concentration and its association constant.
[formula] Thus the quenching of fluorescence can be quantitatively analyzed by comparing the affected lifetimes. The Stern-Volmer (SV) relationship is used to determine kq, the bimolecular quenching rate constant for the diffusion coefficients of the fluorophore and quencher, by deriving a plot of τ0/τ versus [Q]:
[formula] Thus the linear slope of the SV plot, KSV, measures the efficiency of the quencher. Since sulfuric acid was used to study proton-induced quenching, the pH value was a better indicator of [H^+] due to incomplete dissociation of sulfuric acid at high concentrations. In the case of multiple quenchers, as will be discussed in this paper, equation 7 must include additional kq terms that result in modified form of equation 12 below:
[formula] If the two quenchers are act independently, the quencher of known quenching rate and concentration can be combined into the Y-intercept term in order to determine the quenching rate of the second, unknown quencher. […]
To translate halide quenching into quantitative sensing applications, a modified Stern-Volmer equation (Equation 14) was used to linearize the effects of two quenchers, protons and the halide being studied, on the fluorescence of CA-Cysteine. […]
Since the measured sample fluorescence is quenched by both protons and halides, the unquenched fluorescence, Io, was defined as the fluorescence of the neutral state CA-Cysteine in the absence of additional proton or halide quenchers. As mentioned above, the effects of protolytic equilibria stabilize around pH 2.2, where CA-Cysteine undergoes 99% conversion from the dianion state and is marked by constant fluorescence intensities (FIG. 13). […] Thus we chose the fluorescence intensity at pH 2.2 (in the absence of halides) as the unquenched reference signal, Io. IH,Cl in equation 23 is the sample fluorescence at the pH and halide concentration indicated. […]

[3] = Photostability under continuous excitation for 3 hours; type: physicochemical
Procedure: as §1, §2
Photostability of CFDs was characterized thereafter, since traditional organic dyes suffer from photobleaching. Various CFDs were tested under their maximum excitation and emission wavelengths for 3 hours, and the photoluminescence was normalized to the initial intensity.

[4] = pH dependence of fluorescence / pH sensing; type: physicochemical
Procedure: as §3
pH Dependence of CA-Cys Fluorescence. Of all solvent and environmental factors that affect fluorescence, CA-Cys appeared to display the greatest sensitivity to changes in pH. […] From a detailed analysis of FIG. 13, four correlations were observed. Fluorescence properties of CA-Cys were invariable from high basicity to a pH of 4.84, from which the excitation λmax began to red-shift from 350 nm, emission λmax began to red-shift from 418 nm, maximum fluorescence intensity began to decrease, and quantum yield began to decrease. As acidity was increased, all four trends continued until pH 2.44, from which the excitation λmax plateaued at 365 nm, emission plateaued at 445 nm, and fluorescence intensity and quantum yield both experienced a short local plateau. Similarly, Stokes shift increased from 67 nm to 80 nm in high acidity. Lastly, absorbance λmax shifted similarly to that of the maximum excitation, while absorbance intensities remained relatively constant. […] All of these patterns were reminiscent of a pH-dependent equilibrium, thus the predominant mechanism of intensity quenching and bathochromic shifts was hypothesized to be attributed to changes in protolytic equilibria. The noticeably linear quenching of intensities past pH 1.63 is discussed with respect to lifetime analysis herein below.
There is a predictable, linear increase in intensity from pH 3 to 4.5. Furthermore, emission collected at a fixed 445 nm is shown in FIG. 15 to be an isobestic point where intensities are independent of pH (up to pH 1), which should greatly improve the functionality of CA-Cys as a pH sensor. In other words, utilizing 445 nm as a dual-wavelength reference point allows for background subtraction and normalization with respect to absorbance or concentration. […] Furthermore, I418 nm/I445 nm increases linearly in the region of pH 3 to 4.5 for accurate determination of pH within this region, plotted and fitted with an R^2 value of 0.982. To sum up, I418 nm/I445 nm values near 1.6 indicate pH above 4.5, values below 0.7 indicate highly acidic environments below pH 3, while any intermediate I418 nm/I445 nm values can determine the exact pH with good accuracy. It is important to note that CA-Cys fluorescence is in accordance with Kasha's rule, i.e. fluorescence occurs from the lowest excited state, S1→S0, thus the emission λmax is independent of the excitation wavelength, and a fluorescence excitation scan at a fixed emission of 418 nm or 445 nm would provide the maximum fluorescence intensity for that emission wavelength. Also of importance is the reliable range of the isobestic point, which is broken at high acidities (noticeably below pH 1) due to dynamic quenching effects.

[5] = commercial halide sensors; cited from earlier work
[6] = Time-resolved fluorescence lifetime (TCSPC); type: physicochemical; details: one-exponential decay, pulsed excitation at 352 nm, maximum emission wavelength
Procedure: Fluorescence lifetimes were determined by using the Time-Correlation Single Photon Counting (TCSPC) accessory to the FluroMax-4 (Horiba, NJ). NanoLED pulse light sources at wavelengths of 352 nm and 390 nm were used for excitation. For each decay curve, 10,000 photons were collected. Fluorescence lifetime decays were fitted with an exponential series according to equation 1 below:
[formula] where F(t) is the lifetime decay function with respect to time t, Ti is the lifetime value of the emitting species, A is the background offset, and Bi is the pre-exponential function of the emitting species. The method of least squares was used to quantify χ^2 based on the decay data and the fitting function, where χ^2 values smaller than 1.2 indicates a good fit; and values above 1.2 indicate need for multiple exponential fitting in equation 1. If the lifetime decay is dominated by one emitting species, the equation can be simplified to include only the first two terms. One exponential fitting is good for TPA based fluorophores. However, for DPR based fluorophores, only three exponential fitting gives a χ^2 smaller than 1.2. E. Computational Modeling
as §3
Fluorescence lifetime decays were fitted with an exponential series according to equation 5 below:
[formula] Where F(t) is the lifetime decay function with respect to time t, Ti is the lifetime value of the emitting species, A is the background offset, and Bi is the pre-exponential function of the emitting species. If the lifetime decay is dominated by one emitting species, the equation can be simplified to include only the first two terms. Bi measures the relative amplitude of the specified fluorophore, where the percent contribution of the fluorophore to the lifetime decay, f, is derived from equation 6:
[formula] The method of least squares was used to quantify χ^2 based on the decay data and the fitting function, where χ^2 values under 1.2 indicates a good fit, and values above 1.2 indicate need for additional terms in equation 5. Typically, an additional exponential term was necessary to improve the χ^2 value and account for the presence of a negligible 6 ns species, deemed to stem from by-products of CFD synthesis, impurities, or CFD dimers. Since the contribution from this species was minor, often less than 5%, it was not included in lifetime analysis.

| Structure (SMILES) | Shifting (emission shifting with excitation wavelength) [1] | Φ (quantum yield) [1] [%] | λem (maximum emission wavelength) [1] [nm] | λex (maximum excitation wavelength) [1] [nm] | ϵ (extinction coefficiency) [1] [M⁻¹ cm⁻¹] | Max. Em. Wavelength [1] [nm] | Max. Ex. Wavelength [1] [nm] | Quantum Yield [1] [%] | pH dependence of halide quenching [5] | further results |
| --- | --- | --- | --- | --- | --- | --- | --- | --- | --- | --- |
| CC[n+]1cccc2cc(OC)ccc21.[I-] [MEQ] |  |  |  |  |  |  |  |  | quenched by halides independent of pH |  |
| CCOC(=O)C[n+]1cccc2cc(OC)ccc21.[Br-] [MQAE] |  |  |  |  |  |  |  |  | quenched by halides independent of pH |  |
| CCN(CC)c1ccc2c(-c3ccccc3C(=O)O)c3ccc(=[N+](CC)CC)cc-3oc2c1.[Cl-] [Rhodamine B, reference compound] |  |  |  |  |  |  |  |  |  | fluorescence lifetime τ [6]: 1.75 ns |
| COc1ccc2c(ccc[n+]2CCCS(=O)(=O)[O-])c1 [SPQ] |  |  |  |  |  |  |  |  | quenched by halides independent of pH |  |

Second part, led by results:

| Shifting (emission shifting with excitation wavelength) [1] | Φ (quantum yield) [1] [%] | λem (maximum emission wavelength) [1] [nm] | λex (maximum excitation wavelength) [1] [nm] | ϵ (extinction coefficiency) [1] [M⁻¹ cm⁻¹] | Max. Em. Wavelength [1] [nm] | Max. Ex. Wavelength [1] [nm] | Quantum Yield [1] [%] | Structure (SMILES) | pH dependence of halide quenching [5] | further results |
| --- | --- | --- | --- | --- | --- | --- | --- | --- | --- | --- |
| No | 79.3 | 445 | 365 | 3880 | 445 | 365 | 79.3 | O=C(O)c1cc2n(c(=O)c1)CCS2 [CA-Cysteamine] |  | halide sensitivity [2]: increase sensitivity of all halides across all pH; photostability ([3]; FIG. 19): strong photostability |
| Yes | 24.6 | 424 | 359 | 6.6 | 422 | 359 | 22.1 | CCCN1C(=O)C=C(C(=O)O)CC1=O [CA-Propylamine] |  | pH sensitivity [4]: PH insensitive; photobleaching relative to Fluorescein and Rhodamine B ([3]; 3 hours continuous excitation): less stable |
